Laboratory results: US4849410A, “Pseudopterosin and synthetic derivatives thereof” (The Regents of the University of California, priority 1987, dated 1989)

Tests used:
[1] = tested on: P388 leukemia; assay: Evaluation in mice bearing ip P388 leukemia; format: in vivo, female B6D2F1 mice; conditions: for Increase to Lifespan / Median Survival Time / Weight Change Day 5 / Weight Change Day 9: Days 1-5
Protocol: Compound I was also evaluated in mice bearing P388 Leukemia as follows:
Compound I was administered to the mice as a solution by first dissolving it in N,N-dimethylacetamide, adding an equal volume of Cremophor EL and then 8 volumes of water. The drug concentration was such that the desired dose was delivered in a volume of 0.5 ml per mouse. Dilutions from the highest dose in a dose-response study were made by the addition of water so that organic component of the formulation decreased with dose reduction; the drug remained in solution.
10^6 P388 leukemia cells were implanted intraperitoneal in female B6D2F1 mice which were randomized to treatment groups of six animals each. Treatment was initiated 24 hours after tumor implantation and was continued daily for five days (Cisplatin was administered on Days 1 and 5 for the Group 1 mice). Mice were weighted as groups on Days 1, 5 and 9 to provide an indication of drug toxicity. Mice were monitored for survival daily for 45 days, and the median day of death was determined compared to three groups of untreated controls to provide percent increase in lifespan (ILS). ILS values of greater than or equal to 40 percent represent actual reduction in tumor cell burden during the course of treatment and are taken as indications of biologically significant antitumor effect.

[2] = tested on: highly metastatic subline (F10) of B16 melanoma; assay: Antiproliferative effects on tumor cells growing in tissue culture; format: cell-based; conditions: continuous exposure; read-out: concentration that inhibited proliferation by 50 percent
Protocol: Compound I was also tested for antiproliferative effects on tumor cells growing in tissue culture.

[3] = CNS activity and toxicity in the comparative tests; conditions: during the anti-inflammatory assay
[4] = tested on: phenyl-p-benzoquinone (PQ) writhing; assay: Phenyl-p-benzoquinone Assay for Analgesia; format: in vivo, mouse; conditions: for % Inhibition (writhing): s.q.
[5] = tested on: Phorbol Myristate Acetate (PMA) Induced Topical Inflammation of the Mouse Ear; assay: Mouse Ear Anti-Inflammatory Assay (PMA, topical); format: in vivo; conditions: for Ear Weight Mean ± S.E.M.: PMA 1.5 ug
Protocol: a. Mouse Ear Anti-Inflammatory Assay
Test compound and phorbol myristate acetate (PMA) are topically applied simultaneously to the pinnae of the ears of mice. Three hours twenty minutes after application, mice are sacrificed, ears removed and standard sized bores taken. Edema (inflammation) is measured as the difference in weight between control and treated ears.
(§1) The vheicle or carrier for the compounds used in the inflammatory and analgesic assays was as follows; For the mouse ear inflammatory assay, the vehicle was acetone. Controls received 25 microliters of acetone. Test compounds were applied to the experimental animals in 25 microliter volumes. For the sperm motility and fertilized sea urchin egg assays, the compounds were dissolved in 10 microliters undenatured ethanol.

[6] = tested on: Fertilized Sea Urchin Egg; assay: Fertilized Sea Urchin Egg Inhibition of Cleavage Assay for Anti-proliferation; format: cell-based; conditions: doses as low as
Protocol: c. Fertilized Sea Urchin Egg Inhibition of Cleavage Assay for Anti-proliferation
Sea urchins are induced to spawn by injection of 0.5M KCl into the coelomic cavity. Test compound is added to a 1% slurry of eggs within 5 minutes following fertilization and incubated until the completion of the division in control slurry, 90-120 minutes. Inhibition is measured as the present of undivided cells in the slurry at the end of this incubation.
as §1

[7] = tested on: B16 melanoma; assay: Activity in mice bearing ip B16 melanoma; format: in vivo, female B6D2F1 mice
Protocol: Compound I was also evaluated for activity against solid tumors as follows:
One-half ml of a 10 percent (v:v) brei of tumor cells prepared from solid B16 melanoma or M5076 reticulum cell sarcoma was implanted ip in female B6D2F1 mice which were randomized to treatment groups of 8 animals each. Treatment was initiated 24 hours after tumer inoculation and was continued daily for 10 days (cisplatin was administered q4Dx4 on Days 1, 5, 9 and 13). Mice were monitored daily for 60 days, and the median day of death was determined compared to three groups of untreated controls to provide percent increase in lifespan (ILS). ILS values of greater than or equal to 50 percent represent biologically significant antitumor effects. Cisplatin was curative in M5076 with 6/8 tumor-free survivors on Day 60 at the top dose level.

[8] = Side effects, subcutaneous administration to mice; format: in vivo
Description: The following side effect of pseudopterosin A (Compound I) was observed.

[9] = 12.5 mg/kg to 50 mg/kg subcutaneously

SMILES: CC(C)=C[C@H]1C[C@H](C)[C@H]2CC[C@H](C)c3c(O[C@@H]4OC[C@@H](O)[C@H](O)[C@H]4O)c(O)c(C)c1c32 [Compound I, pseudopterosin A]
- Increase to Lifespan ([1]; Group 2, 7.9 mg/kg ip): 10%
- Median Survival Time ([1]; Group 2, 7.9 mg/kg ip): 11 days
- Weight Change Day 5 ([1]; Group 2, 7.9 mg/kg ip): +1.1 gm
- Weight Change Day 9 ([1]; Group 2, 7.9 mg/kg ip): +3.6 gm
- Increase to Lifespan ([1]; Group 2, 11.9 mg/kg ip): 15%
- Median Survival Time ([1]; Group 2, 11.9 mg/kg ip): 11.5 days
- Weight Change Day 5 ([1]; Group 2, 11.9 mg/kg ip): +0.7 gm
- Weight Change Day 9 ([1]; Group 2, 11.9 mg/kg ip): +2.5 gm
- Increase to Lifespan ([1]; Group 2, 17.8 mg/kg ip): 15%
- Median Survival Time ([1]; Group 2, 17.8 mg/kg ip): 11.5 days
- Weight Change Day 5 ([1]; Group 2, 17.8 mg/kg ip): 0 gm
- Weight Change Day 9 ([1]; Group 2, 17.8 mg/kg ip): +2.8 gm
- Increase to Lifespan ([1]; Group 2, 26.7 mg/kg ip): 25%
- Median Survival Time ([1]; Group 2, 26.7 mg/kg ip): 12.5 days
- Weight Change Day 5 ([1]; Group 2, 26.7 mg/kg ip): -0.7 gm
- Weight Change Day 9 ([1]; Group 2, 26.7 mg/kg ip): +3.4 gm
- Increase to Lifespan ([1]; Group 2, 40 mg/kg ip): 30%
- Median Survival Time ([1]; Group 2, 40 mg/kg ip): 13 days
- Weight Change Day 5 ([1]; Group 2, 40 mg/kg ip): -2.1 gm
- Weight Change Day 9 ([1]; Group 2, 40 mg/kg ip): +2.2 gm
- Increase to Lifespan ([1]; Group 2, 60 mg/kg ip): 65%
- Median Survival Time ([1]; Group 2, 60 mg/kg ip): 16.5 days
- Weight Change Day 5 ([1]; Group 2, 60 mg/kg ip): -3.2 gm
- Weight Change Day 9 ([1]; Group 2, 60 mg/kg ip): -0.5 gm
- Increase to Lifespan ([1]; Group I, 1.5 mg/kg ip): 27%
- Median Survival Time ([1]; Group I, 1.5 mg/kg ip): 14 days
- Weight Change Day 5 ([1]; Group I, 1.5 mg/kg ip): +0.1 gm
- Weight Change Day 9 ([1]; Group I, 1.5 mg/kg ip): +4.6 gm
- Increase to Lifespan ([1]; Group I, 3 mg/kg ip): 27%
- Median Survival Time ([1]; Group I, 3 mg/kg ip): 14 days
- Weight Change Day 5 ([1]; Group I, 3 mg/kg ip): +0.4 gm
- Weight Change Day 9 ([1]; Group I, 3 mg/kg ip): +4.2 gm
- Increase to Lifespan ([1]; Group I, 6 mg/kg ip): 36%
- Median Survival Time ([1]; Group I, 6 mg/kg ip): 15 days
- Weight Change Day 5 ([1]; Group I, 6 mg/kg ip): +0.7 gm
- Weight Change Day 9 ([1]; Group I, 6 mg/kg ip): +2.9 gm
- Increase to Lifespan ([1]; Group I, 12 mg/kg ip): 45%
- Median Survival Time ([1]; Group I, 12 mg/kg ip): 16 days
- Weight Change Day 5 ([1]; Group I, 12 mg/kg ip): -2.6 gm
- Weight Change Day 9 ([1]; Group I, 12 mg/kg ip): +1.3 gm
- Increase to Lifespan ([1]; Group I, 24 mg/kg ip): 82%
- Median Survival Time ([1]; Group I, 24 mg/kg ip): 20 days
- Weight Change Day 5 ([1]; Group I, 24 mg/kg ip): +0.4 gm
- Weight Change Day 9 ([1]; Group I, 24 mg/kg ip): -0.6 gm
- maximally tolerated dose ([1]; a daily dose in this range, from weight loss): ~60 mg/kg/day
- activity in mice bearing intraperitoneal P388 leukemia ([1]; mouse, in vivo, ip): demonstrated reproducible activity
- activity in mice bearing intraperitoneal P388 leukemia ([1]; second group, 60 mg/kg/day): significant activity
- activity in mice bearing intraperitoneal P388 leukemia ([1]; second group, dose similar to 24 mg/kg/day): ineffective
- IC50 [2]: 42 µM
- CNS stimulation [3]: exhibited the CNS stimulation
- ED50 ([4]; 50% inhibition of writhing, n = 10 mice/dose): 4.22 mg/kg
- % Inhibition (writhing) ([4]; 2.0 mg/kg): 29%
- % Inhibition (writhing) ([4]; 3.5 mg/kg): 46%
- % Inhibition (writhing) ([4]; 5.0 mg/kg): 38%
- % Inhibition (writhing) ([4]; 7.5 mg/kg): 79%
- % Inhibition (writhing) ([4]; 10 mg/kg): 73%
- % Inhibition (writhing) ([4]; 20 mg/kg): 96%
- decrease in edema ([5]; 50 microgram): 69%
- Ear Weight Mean ± S.E.M. ([5]; 6.25 ug/ear): 16.78 ± 0.91 mg
- Ear Weight Mean ± S.E.M. ([5]; 12.5 ug/ear): 14.99 ± 0.6 mg
- Ear Weight Mean ± S.E.M. ([5]; 25.0 ug/ear): 13.18 ± 0.53 mg
- Ear Weight Mean ± S.E.M. ([5]; 50.0 ug/ear): 12.47 ± 0.46 mg
- Ear Weight Mean ± S.E.M. ([5]; 100.0 ug/ear): 11.70 ± 0.37 mg
- Anti-inflammatory Activity ([5]; summary): Active
- dose that totally inhibits cell division [6]: 7 µM
- Increase to Lifespan ([7]; 6.48 mg/kg ip): -2%
- Median Survival Time ([7]; 6.48 mg/kg ip): 21.5 days
- Weight Change on Day 9 ([7]; 6.48 mg/kg ip): +1.2 gm
- Increase to Lifespan ([7]; 10.8 mg/kg ip): -7%
- Median Survival Time ([7]; 10.8 mg/kg ip): 20.5 days
- Weight Change on Day 9 ([7]; 10.8 mg/kg ip): +1.0 gm
- Increase to Lifespan ([7]; 18 mg/kg ip): -2%
- Median Survival Time ([7]; 18 mg/kg ip): 21.5 days
- Weight Change on Day 9 ([7]; 18 mg/kg ip): +0.9 gm
- Increase to Lifespan ([7]; 30 mg/kg ip): 11%
- Median Survival Time ([7]; 30 mg/kg ip): 24.5 days
- Weight Change on Day 9 ([7]; 30 mg/kg ip): +0.5 gm
- Increase to Lifespan ([7]; 50 mg/kg ip): -4%
- Median Survival Time ([7]; 50 mg/kg ip): 21 days
- Weight Change on Day 9 ([7]; 50 mg/kg ip): -0.4 gm
- antitumor activity ([7]; B16 melanoma): did not demonstrate significant antitumor activity
- duration of side effects [8, 9]: last up to one hour
- onset of side effects [8, 9]: within a few minutes of administration
- side effects ([8]; 12.5 mg/kg to 50 mg/kg subcutaneously, sesame oil): central nervous system excitation, brief involuntary muscle contraction of the hind limbs resulting in lateral jumping movements, excessive preening of wound sites, and flushing of the tail and ears
- side effects ([8]; doses as low as 3 mg/kg): slight to moderate central nervous system excitation
